Reference: US20100190751A1, “NOVEL COMBINATION OF NERAMEXANE FOR TREATMENT OF NERORDEGENERATIE DISORDERS” (MERZ PHARMA GmbH & CO. KGaA, priority 2007, published 2010)

Experiments:
[1] = tested on: SOD1(G93A) transgenic mouse model of ALS; experiment: Motor performance in the running wheel, SOD1(G93A) ALS mouse model; format: in vivo; conditions: for Disease Progression (Rev's per 12 hours/day) / Presymptomatic Performance (Rev's per 12 hours) / Half Maximum Performance: both gender; for Presymptomatic Performance, Difference (rp 12 hours): versus vehicle control 19,518; for Disease Progression, Difference: versus vehicle control −17.862; for Half Maximum Performance, Difference: versus vehicle control 106.1
Method: Drug treatment starts at day 45.
Memantine is supplied by MERZ pharmaceuticals. […] Drugs are dissolved in drinking water. […] Memantine is administered twice a day subcutaneously.
Consumption of drinking water is checked randomly.
4. Motor Performance in the running wheel

[2] = tested on: SOD1(G93A) transgenic mouse model of ALS; conditions: both gender; for Age of Disease Onset, Mean age / Age of First Paresis, Mean age / Disease Endstage - Survival, Mean age: treatment from day 45; for Age of Disease Onset, Mean age: riluzole 35 mg/kg day and neramexane (dosage adapted to gender, 50 male/150 female) in drinking water, memantine 20 mg/kg day s.c.; for Age of First Paresis, Mean age / Disease Endstage - Survival, Mean age: same doses as Table 1; for Age of Disease Onset, Difference compared to control: versus vehicle control mean 106.6; for Age of First Paresis, Difference compared to control: versus vehicle control mean 119.7; for Disease Endstage - Survival, Difference compared to control: versus vehicle control mean […]
[3] = tested on: SOD1(G93A) ALS-mouse model; conditions: Wang et al. 2005; cited from earlier work

SMILES	Disease Progression (Rev's per 12 hours/day) [1]	Presymptomatic Performance (Rev's per 12 hours) [1]	Presymptomatic Performance, Difference (rp 12 hours) [1]	Disease Progression, Difference [1]	Age of Disease Onset, Median age [2]	Age of First Paresis, Median age [2]	Age of Disease Onset, Mean age [2]	Age of First Paresis, Mean age [2]	Age of Disease Onset, Difference compared to control [2]	Age of First Paresis, Difference compared to control [2]	Half Maximum Performance [1]	Half Maximum Performance, Difference [1]	Disease Endstage - Survival, Median age [2]	Disease Endstage - Survival, Mean age [2]	Disease Endstage - Survival, Difference compared to control [2]	Effects regarding disease progression and survival [3]
Nc1nc2ccc(OC(F)(F)F)cc2s1 [Riluzole, 2-amino-6-trifluromethoxybenzothiazole]	−14.015 Rev's per 12 hours/day	20,565 Rev's per 12 hours	1,047 rp 12 hours	3.847	105.0 days	119.0 days	106.3 days	120.0 days	-0.3 days	0.3 days						
CC1(C)CC(C)(C)CC(C)(N)C1 [Neramexane, 1-amino-1,3,3,5,5-pentamethylcyclohexane]	−16.108 Rev's per 12 hours/day	21,096 Rev's per 12 hours	1,578 rp 12 hours	1.754	107.0 days	124.0 days	107.8 days	123.7 days	1.2 days	4.0 days	109.2 days	3.1 days	135.0 days	135.1 days	5.8 days	
CC12CC3CC(C)(C1)CC(N)(C3)C2 [Memantine]	−22.528 Rev's per 12 hours/day	10,784 Rev's per 12 hours	−8,734 rp 12 hours	−4.666	107.5 days	123.0 days	108.5 days	123.7 days	1.9 days	4.0 days	110.5 days	4.4 days	134.0 days	134.4 days	5.1 days	positive effects
